From US7256206B2, “Bicyclic compounds and compositions” (IRM LLC, priority 2003, dated 2007) come the findings set out here.

Some results are limits rather than exact numbers.

The target in series [1] is T1, EDG-5 (Homo sapiens, UniProt O95136).
T1 construct: c-myc (print says 'tagged or untagged'; not resolved for this receptor) (C); expressed in transfected cells; membranes
The experiment in a line: EDG-5 GTP [γ-35S] binding assay. In kind it is biochemical. The following applies: CHO membranes. From the text: (§1) A. In vitro: a Scintillation Proximity Assay (SPA) for Measuring GTP [γ-^35S] Binding to Membranes Prepared from CHO Cells Expressing Human EDG/S1P Receptors
(§2) EC50 values are obtained by fitting the GTP [γ-^35S] binding curves (raw data) with the dose response curve-fitting tool of ORIGIN V. 6.1. Basal binding (no compound) and the highest stimulation of GTP [γ-^35S] binding achieved by an agonist are used as the fitting range. Seven different concentrations are used to generate a concentration response curve (using two or three data points per concentration).
(§3) Concentrations of EDG receptor expressing membranes range between 13–19 μg per well.

The target of series [2] is T2, EDG-8 (Homo sapiens, UniProt Q9H228).
T2 construct: c-myc (print says 'tagged or untagged'; not resolved for this receptor) (C); expressed in transfected cells; membranes
T2 sequence (Q9H228 whole entry): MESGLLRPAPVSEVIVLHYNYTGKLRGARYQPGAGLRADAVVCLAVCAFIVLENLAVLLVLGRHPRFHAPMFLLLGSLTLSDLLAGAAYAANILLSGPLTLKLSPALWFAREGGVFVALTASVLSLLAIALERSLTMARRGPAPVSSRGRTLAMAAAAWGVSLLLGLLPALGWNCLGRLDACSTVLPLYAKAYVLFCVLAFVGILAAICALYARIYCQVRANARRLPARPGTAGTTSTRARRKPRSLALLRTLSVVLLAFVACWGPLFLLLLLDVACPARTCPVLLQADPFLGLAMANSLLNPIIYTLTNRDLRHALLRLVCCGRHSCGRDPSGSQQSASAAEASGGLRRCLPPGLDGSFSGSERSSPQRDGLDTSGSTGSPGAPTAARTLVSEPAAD
Description: EDG-8 GTP [γ-35S] binding assay (RH7777 membranes). In kind it is biochemical.

For series [3], the target named is T3, EDG-6 (Homo sapiens, UniProt O95977).
T3 construct: c-myc (print says 'tagged or untagged'; not resolved for this receptor) (C); expressed in transfected cells; membranes
T3 sequence (O95977 1-384): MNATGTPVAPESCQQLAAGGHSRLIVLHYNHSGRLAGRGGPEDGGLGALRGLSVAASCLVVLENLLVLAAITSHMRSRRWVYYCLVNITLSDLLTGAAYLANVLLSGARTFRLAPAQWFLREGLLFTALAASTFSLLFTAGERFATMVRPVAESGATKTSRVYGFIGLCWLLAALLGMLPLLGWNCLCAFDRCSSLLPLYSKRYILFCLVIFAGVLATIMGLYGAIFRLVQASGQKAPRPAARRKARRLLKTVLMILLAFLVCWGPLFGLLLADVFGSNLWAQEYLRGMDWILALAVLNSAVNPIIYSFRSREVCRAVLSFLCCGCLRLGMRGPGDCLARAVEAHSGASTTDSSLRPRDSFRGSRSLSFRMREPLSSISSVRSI
Description: EDG-6 GTP [γ-35S] binding assay. The series is classed as biochemical. The following applies: CHO membranes.
Text: as §1, §2, §3

The target in series [4] is T4, EDG-3 (Homo sapiens, UniProt Q99500).
T4 construct: c-myc (print says 'tagged or untagged'; not resolved for this receptor) (C); expressed in transfected cells; membranes
T4 sequence (Q99500 whole entry): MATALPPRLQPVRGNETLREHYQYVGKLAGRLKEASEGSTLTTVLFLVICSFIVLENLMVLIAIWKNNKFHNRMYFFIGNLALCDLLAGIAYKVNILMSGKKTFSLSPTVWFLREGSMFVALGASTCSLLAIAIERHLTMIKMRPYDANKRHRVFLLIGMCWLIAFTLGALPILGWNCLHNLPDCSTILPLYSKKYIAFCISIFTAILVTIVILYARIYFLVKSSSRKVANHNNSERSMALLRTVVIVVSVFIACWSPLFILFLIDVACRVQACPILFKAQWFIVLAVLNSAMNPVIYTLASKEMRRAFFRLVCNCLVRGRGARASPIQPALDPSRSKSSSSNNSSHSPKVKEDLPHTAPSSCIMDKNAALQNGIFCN
Description: EDG-3 GTP [γ-35S] binding assay. The series is classed as biochemical. To be noted: CHO membranes.
Text: as §1, §2, §3

Series [5] has as its target T5, human EDG-1 (Homo sapiens, UniProt P21453).
T5 construct: c-myc (N); expressed in transfected cells; membrane protein suspensions
Description: EDG-1 (S1P1) GTP [γ-35S] binding assay (SPA). The series is classed as biochemical. To be noted: for EC50: GTP [γ-35S] binding, CHO membranes. As for the experimental part:
as §1
EDG-1 (S1P1) GTP [γ-^35S] binding assay: Membrane protein suspensions are prepared from CHO cell clones stably expressing a human EDG-1 N-terminal c-myc tag. Solutions of test compounds ranging from 10 mM to 0.01 mM are prepared in DMSO/50 mM HCl and then diluted into assay buffer (20 mM HEPES, pH7.4, 100 mM NaCl, 10 mM MgCl2, 0.1% fat free BSA). Assay buffer containing […] is mixed with wheat germ agglutinin-coated SPA-beads (1 mg/well) followed by the addition of human EDG-1 membrane protein suspension (10 μg/well) and test compound. The bead/membrane/compound assay components are then mixed for 10–15 minutes on a shaker at room temperature. GTP [γ-^35S] (200 pM) and bead/membrane/compound assay mixture are added to individual wells of a 96 well Optiplate™ (final volume 225 μl/well), sealed and incubated at room temperature for 110 to 120 minutes under constant shaking. After centrifugation (2000 rpm, 10 minutes) luminescence is measured with a TopCount™ instrument.
as §2

Series [6] in a line: Assessment of heart effect (AnonyMOUSE ECG screening). The following applies: ECG before and after compound, 90 μg IP. In kind it is in vivo, mice (C57bl/6 male). As for the experimental part: (§4) C. In Vivo: Screening Assays for Measurement of Blood Lymphocyte Depletion and Assessment of Heart Effect
Assessment of Heart Effect: The effects of compounds on cardiac function are monitored using the AnonyMOUSE ECG screening system. Electrocardiograms are recorded in conscious mice (C57bl/6 male, 6–10 week-old) before and after compound administration. ECG signals are then processed and analyzed using the e-MOUSE software. 90 μg of compound further diluted in 200 μl water, 15% DMSO are injected IP. Four mice are used to assess the heart effect of each compound.

Series [7] deals with circulating lymphocytes. The experiment in a line: Measurement of blood lymphocyte depletion. The series is classed as in vivo, Mice (C57bl/6 male). To be noted: mice, blood collected 18 hours after administration, dose for 50% blood lymphocyte depletion; for ED50: Mus musculus, Lymphocyte, ip, 18 h. As for the experimental part: as §4
Measurement of circulating lymphocytes: Compounds are dissolved in DMSO and further diluted with deionized water. Mice (C57bl/6 male, 6–10 week-old) are administered 20 μg of compound (diluted in 200 μl water, 4% DMSO) via intra-peritoneal (IP) injection under short isoflurane anesthesia. Water (200 μl), 4% DMSO, and FTY720 (10 μg) are included as negative and positive controls, respectively.
Blood is collected from the retro-orbital sinus 18 hours after drug administration under short isoflurane anesthesia. Whole blood samples are subjected to hematology analysis. Peripheral lymphocyte counts are determined using an automated analyzer. Subpopulations of peripheral blood lymphocytes are stained by fluorochrome-conjugated specific antibodies and analyzed using a fluorescent activating cell sorter (Facscalibur). Two mice are used to assess the lymphocyte depletion activity of each compound screened. The result is an ED50, which is defined as the effective dose required displaying 50% of blood lymphocyte depletion.

T1 sequence (O95136 whole entry): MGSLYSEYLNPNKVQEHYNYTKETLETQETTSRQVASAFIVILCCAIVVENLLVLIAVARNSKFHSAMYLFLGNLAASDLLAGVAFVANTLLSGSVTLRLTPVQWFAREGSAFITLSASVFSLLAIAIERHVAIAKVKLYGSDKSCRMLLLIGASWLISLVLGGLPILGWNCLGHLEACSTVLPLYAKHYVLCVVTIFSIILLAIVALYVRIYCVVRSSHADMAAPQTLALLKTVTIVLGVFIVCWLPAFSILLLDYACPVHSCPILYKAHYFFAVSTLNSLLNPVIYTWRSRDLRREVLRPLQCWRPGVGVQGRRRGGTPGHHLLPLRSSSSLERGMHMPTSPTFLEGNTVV
T5 sequence (P21453 whole entry): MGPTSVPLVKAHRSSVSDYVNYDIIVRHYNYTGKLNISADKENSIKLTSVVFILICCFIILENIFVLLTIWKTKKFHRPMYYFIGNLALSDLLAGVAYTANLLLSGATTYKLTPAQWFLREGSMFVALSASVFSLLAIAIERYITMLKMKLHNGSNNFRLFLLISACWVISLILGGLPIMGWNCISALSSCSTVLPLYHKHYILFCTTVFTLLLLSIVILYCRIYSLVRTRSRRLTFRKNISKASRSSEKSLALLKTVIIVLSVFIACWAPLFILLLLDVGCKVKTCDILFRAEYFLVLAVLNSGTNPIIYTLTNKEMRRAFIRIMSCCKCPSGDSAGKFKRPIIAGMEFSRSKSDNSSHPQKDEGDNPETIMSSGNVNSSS

Take `C/C(=N\OCc1ccc(-c2ccccc2)cc1)c1ccc(CCC(N)(CO)COP(=O)(O)O)cc1` (stereo not drawn): the half-maximal effective concentration (EC50) is over 10 µM in series [1]; over 10 µM in series [2]; 0.168 µM in series [3]; over 10 µM in series [4]; 0.00086 µM in series [5]. The “Heart effect in conscious mice” value in series [6] is reported as “clean”. In series [7], the ED50 is about 0.1 mg/kg.
On to `C/C(=N\OCc1ccc(-c2cccs2)cc1)c1ccc(CCC(N)(CO)COP(=O)(O)O)cc1` (stereo not drawn) [Compound 10, phosphoric acid mono-(2-amino-2-hydroxymethyl-4-{4-[1-(4-thiophen-2-yl-benzyloxy-imino)-ethyl]-phenyl}-butyl)ester], for which the EC50 in series [1] was over 10 µM; in series [2], over 10 µM; in series [3] it was over 10 µM; in series [4], over 10 µM; in series [5], 0.00115 µM. Also, the “selectivity for EDG-1 compared to EDG-3, EDG-5, EDG-6 and EDG-8” value in series [5] (GTP [γ-35S] binding assays) is on record as “at least 1000 fold”. The “Heart effect in conscious mice” value in series [6] is reported as “clean”. Also, the ED50 in series [7] is about 0.2 mg/kg.
`C/C(=N\OCc1ccc(-c2cccc(C(F)(F)F)c2)cc1)c1ccc(CCC(N)(CO)COP(=O)(O)O)cc1` (stereo not drawn): the EC50 in series [1] was over 10 µM; in series [2], 0.0058 µM; in series [3], 1.24 µM; in series [4], 0.0035 µM; in series [5], 0.0157 µM. Also, the “Heart effect in conscious mice” value in series [6] is recorded as “clean”. In series [7], the ED50 is under 1 mg/kg.
As to `C/C(=N\OCc1ccc(-c2ccsc2)cc1)c1ccc(CCC(N)(CO)COP(=O)(O)O)cc1` (stereo not drawn) [Compound 9], the EC50 was over 10 µM in series [1]; over 10 µM in series [2]; 4.4 µM in series [3]; over 10 µM in series [4]; 0.00079 µM in series [5]. For the same compound, the “Heart effect in conscious mice” value in series [6] is reported as “clean”. Also, in series [7], it took a dose of 0.08 mg/kg to reach the 50% effect level (ED50). The “Lymphocyte Depletion ED50” value in series [7] (IP) is on record as “ED50 ~0.08 mg/kg”.
